From patent US20150167050A1, “Cancer Diagnosis by Measuring Polyisoprenylated Methylated Protein Methyl Esterase Activity” (Florida Agricultural and Mechanical University, priority 2013, published 2015)

Experiments:
[1] = test system: PMPMEase; settings: cited from earlier work; for concentrations that inhibit PMPMEase: concentration range given in words only
[2] = test system: PMPMEase; assay: Inhibition of PMPMEase by drugs, curcumin, fatty acids and prostaglandins; assay type: biochemical; settings: relative to arachidonic acid (AA)

SMILES	concentrations that inhibit PMPMEase [1]	other results
COc1cc(/C=C/C(=O)CC(=O)/C=C/c2ccc(O)c(OC)c2)ccc1O [curcumin]	micromolar concentrations	
CCCCC/C=C\C/C=C\C/C=C\C/C=C\CCCC(=O)O [arachidonic acid]	micromolar concentrations	
CCCCC[C@H](O)/C=C/[C@H]1C=CC(=O)[C@@H]1C/C=C\CCCC(=O)O [Prostaglandin (PG) A2]		fold less potent than AA as PMPMEase inhibitor [2]: 63 fold
CC/C(=C(\c1ccccc1)c1ccc(OCCN(C)C)cc1)c1ccccc1 [tamoxifen]	millimolar concentrations	
CCCCC[C@H](O)/C=C/[C@H]1[C@H](O)CC(=O)[C@@H]1C/C=C\CCCC(=O)O [PGE2]		inhibition of PMPMEase at 1 mM ([1]; 1 mM): did not inhibit
O=P1(N(CCCl)CCCl)NCCCO1 (stereo not drawn) [cyclophosphamide]	millimolar concentrations	
